melting point [°C]	Structure (SMILES)
238 to 239	COc1ccc(C(=O)Nc2ccc(OC)cc2NC(=O)c2ccc(OC)cc2)cc1
240 to 242	NC(=O)c1cc2ccccc2nc1N
133 to 134	CC(=O)N(C)CCc1ccc(CCC(=O)O)cc1
58 to 60	CN(C(=O)Nc1ccc2c(ccn2C)c1)c1cccnc1
95 to 99	O=S(=O)(Oc1ccc2sc(-c3ccc(OCCN4CCCC4)cc3)cc2c1)C(F)(F)F
31.5 to 32.5	CCOC(=O)C1=C(S(=O)(=O)Cl)CCCC1
135 to 137	CC1(c2ccc(F)cc2)NOCC1CN(O)C(N)=O (configuration not stated)
70.5 to 71.5	CC(C)(C)OC(=O)N1C(=O)[C@H]2C=C[C@@H]1C2
176 to 178	COc1cc2c(cc1N1CCN(CC3Cc4ccccc4C3)CC1)OCCO2
195 to 197	CCCCNC(=O)Nc1cc(Cl)ccc1C(=O)NCC1CCN(C(c2ccccc2)c2ccccc2)CC1
131 to 133	O=C(O)CCCC(=O)c1ccc2c(c1)CCO2
90 to 92	O=C(CCc1ccccc1)NCCCn1ccnc1
124 to 126	COc1ccc(C(C#N)N2C(=O)c3cccc(NC(C)=O)c3C2=O)cc1OC1CCCC1 (configuration not stated)
154 to 156	CN1C(O)=C(C(=O)Nc2ccc(Cl)cc2)c2cscc2S1(=O)=O
130 to 133	CC(C)c1c(C(=O)Nc2ccc(O)cc2)c(-c2ccccc2)c(-c2ccc(F)cc2)n1CC[C@@H]1C[C@@H](O)CC(=O)O1
67 to 70	CCOC(=O)[C@@H](NC(=O)[C@H](CC(C)C)NC(=O)OC(C)(C)C)[C@@H](C)O
187	NN=c1[nH]c2ccc(Br)cc2cc1[N+](=O)[O-]
107 to 109	CC(C)[C@H](CCC(=O)O)NC(=O)OC(C)(C)C
102	CCCC[C@H](NC(=O)[C@H](CC(C)C)NC(=O)c1cc(F)ccc1F)C(=O)CSCc1ccco1
93 to 96	CCCNC(=O)c1cccc(C2(c3ccc(OC(F)F)cc3)N=C(N)N(C)C2=O)c1 (configuration not stated)
101 to 102	CS(=O)(=O)c1ccccc1CNC(=O)[C@@H]1CCCN(c2cccc3c2C(=O)N(Cc2ccncc2)C3=O)C1
171	N#Cc1cccc(C2=NNCCC2n2cc(Cl)cn2)c1 (configuration not stated)
155 to 156	CN1CC[C@@H](c2c(O)cc(O)c3c(=O)cc(-c4ccc(Br)cc4Cl)oc23)[C@@H]1CO

melting point [°C]	Structure (SMILES)
110 to 116	O=C(OC(=O)c1ccc([N+](=O)[O-])cc1S(=O)(=O)O)c1ccc([N+](=O)[O-])cc1S(=O)(=O)O
122 to 123	CCOC(=O)c1cc2cc(NC(C)=O)ccc2n1C(=O)OC(C)(C)C
157	OCCn1c(NC2CCNCC2)nc2cccnc21
234 to 235	COc1ccc(C(=O)Nc2ccc(C(C)(C)C(N)=O)cc2)cc1
135 to 136	CCc1cccc(C)c1CNc1nc(OCCOC)cc(NC)c1[N+](=O)[O-]
242 to 245	COc1ccccc1NC(=O)Nc1cccc(-n2c(=O)c(CCC(=O)N(C)C)nc3cccnc32)c1
168 to 170	CCOC(OCC)c1cc(NC(c2ccccc2)(c2ccccc2)c2ccccc2)c(F)c(C(C)(C)C)n1
55 to 57	CN1C(=O)CC[C@]2(C)c3ccc(-c4cccc(CNC(c5ccccc5)c5ccccc5)c4)cc3CC[C@@H]12
92 to 94	CC(C)c1nc2c(nc1C(C)C)C(=O)CCC2
138 to 139	CCOc1nn(-c2ccc(C(F)(F)F)cn2)cc1CCCOc1ccc(OC)cc1CC(=O)O
119 to 121	NS(=O)(=O)c1cc(C(=O)O)cc([N+](=O)[O-])c1-c1ccccc1
189 to 191	c1cnc2c(c1)-c1nc(NC3CCNCC3)ncc1-c1ccncc1N2
115 to 116	CSc1nnc(C2(C)CC2)c(=O)n1N
105 to 106	CCCCN(CCCC)c1cc(OC)c(C=Cc2ccc(C=O)s2)c(OC)c1
157 to 158	Cc1cnc2c(c1)C[C@H](Cc1ccc(O)cc1)CC2
75 to 76	CCOC(=O)CC[C@H](NC(=O)c1ccc(CCCCc2c(N)nc(N)nc2O)cc1)C(=O)OCC
70 to 72	Cc1nnc(-c2cn3c4c(cccc24)CCC3)o1
113 to 114	COc1ccc2ccc(OCc3ccc4ccccc4n3)cc2c1
71 to 74	c1ccc(-c2cc(-c3ccccc3)c(N3CCN(c4ncccn4)CC3)nn2)cc1
70.5 to 71.2	Cc1cc(CCCCCOc2ccc(-c3nc4ccccc4s3)cc2)on1
245	CC1(C)CC(=O)c2c(Sc3ncccn3)sc(-c3cc[nH]n3)c2C1
63 to 66	CCC1COc2ccccc2C(=O)C1=O (configuration not stated)
209 to 210	Cn1ncc(/C=C/C(=O)Nc2ccc(Cc3nccs3)cc2)c1-c1ccc(F)cc1

melting point [°C]	Structure (SMILES)
50 to 53	COc1ccc(C2(C#N)CCC(=NO)CC2)cc1OC1CCCC1 (configuration not stated)
266 to 267	CCCCCOc1ccc2cc(CC[C@@](C)(N)COP(=O)(O)O)ccc2c1
110 to 111	CCCc1cc(OCC)c2c(c1OC)S(=O)(=O)N(CSc1nnnn1-c1ccccc1)C2=O
240 to 242	COC(=O)c1ccc(C(=O)NS(=O)(=O)c2ccc(C(=O)NCCc3ccc(OC)cc3)cc2)cn1
186	Cn1c(=O)c(C(=O)NC2CCCCC2)c(Cl)c2cc(O)ccc21
42 to 43	CC(C)(C)N1CC(O)C1
221 to 222	O=c1cnc2c(NCCO)nc(SCc3cccc(C(F)(F)F)c3F)nc2[nH]1
49 to 51	CC1(C)CON(Cc2c(F)cccc2Cl)C1=O
214 to 216	Nc1sc(-c2ccncc2)c(CN(C2CCCCC2)C2CCCCC2)c1C(=O)c1ccc(Cl)cc1
141 to 142	CCSc1cc(C)nc(SCC)c1NC(=O)CCCCSc1nc2c(C)c(Cl)cc(C(C)C)c2o1
224 to 225	N#Cc1cc(C(F)(F)F)[nH]c1-c1ccc(C=O)o1
243 to 244	CC(=O)c1cnc2c(c1)[C@@H](NC(=O)c1ccccc1Cl)[C@H](O)C(C)(C)O2 (relative stereo)
204 to 205	CCOc1cc(O)cc2c1C(=O)N(CSc1ccccc1)S2(=O)=O
67 to 69	CCN(Cc1csc(C2CCCC2)n1)C(=O)N[C@H](C(=O)N[C@@H](Cc1ccccc1)C[C@H](O)[C@H](Cc1ccccc1)NC(=O)OCc1cncs1)C(C)C
60 to 63	CC(C)(C)N(NC(=O)c1ccccc1)C(=O)c1cccnc1
113 to 115	CCCc1c(OCCCCCC(=O)c2cc(OC)c(OC)c(C(C)C)c2)ccc(C(=O)O)c1O
214	N#CC1CCCCC1n1nc(-c2c(-c3ccccc3)nn3ccccc23)ccc1=O (configuration not stated)
155 to 156	O=C(CN1CCCNC1=O)N1CCC(C2c3ncc(Br)cc3CCc3cc(Cl)cc(Br)c32)CC1 (single isomer, unassigned; (+))
115 to 116	CC(C)(C)NCCNC(=O)Cn1ncc(-c2ccccc2)c1-c1ccccc1
135 to 137	CCCCc1nn(-c2cc(NC(=O)CC)ccc2Cl)c(=O)n1Cc1ccc(-c2ccccc2S(N)(=O)=O)cc1F
198 to 200	COc1cc(C(F)(F)F)nc2c(Cl)ccc(F)c12
> 235	CC(=O)c1ccc(NCc2ccc3ccc4nc(C)[nH]c(=O)c4c3c2)cc1
236 to 238	CC(C)Oc1ccc(-n2c(C(=O)O)c(C(=O)O)c3cc(Oc4ncccc4C(N)=O)ccc32)cc1

melting point [°C]	Structure (SMILES)
118 to 120	O=C1C2=CSCCN2C(=O)N1c1cccc(Cl)c1F
246 to 248	CC1(C)OC(=O)Nc2c(F)cc(-c3ccc(F)c(Cl)c3)cc21
101 to 102	CN(Cc1ccccc1)c1nc(=O)n(C(=O)c2cccs2)cc1F
101 to 103	CC1(C)CC(=O)c2c(C3CCCCC3)sc(-c3nccs3)c2C1
> 300	O=c1[nH]c2cc(Cl)cc(Cl)c2cc1Br
80 to 82	CCOC(=O)COc1ccc(O)c(Cl)c1
132 to 134	COC(=O)CN(C)CCNC(=O)c1nc(Cl)c(N)nc1N
188 to 190	COc1ccc2cnc(=O)[nH]c2c1C(C)C
180	CN1C(=O)C(c2c[nH]c3ncccc23)=C(c2cn(C(=O)OC(C)(C)C)c3ccccc23)C1=O
113 to 114	CON=C(C(=O)OC)c1ccccc1CSc1nc2ccccc2s1
157 to 159	CCCCc1sc2ccccc2c1-c1ccc(-c2ccc(OC(C(=O)O)c3ccccc3)cc2)cc1 (configuration not stated)
113 to 115	COc1ccc(N(N)c2cc(Cl)nc(Cl)n2)cc1
100 to 102	COC(=O)c1ccc(OCCCO/N=C/c2cn(Cc3ccccc3)c3ccccc23)cc1O
127 to 128	CCOc1cc2c(c3c1OC(C)(C)C3)C(c1cccc(C(=O)NCC(N)=O)c1)=NC(C)(C)C2
165 to 167	OC1CCN(c2nc(-c3ccccc3)nc3ccccc23)CC1
97 to 98	CCCCCCCC(O)C1(C)OC(C)=C(O)C1=O (configuration not stated)
61	CCCN(CCC)C(=O)n1cnc(S(=O)(=O)C(C)C)n1
189 to 190	CS(=O)c1[nH]cc(Cc2ccccc2)c1[N+](=O)[O-] (configuration not stated)
248 to 249	COc1cc(C(=O)NS(=O)(=O)c2ccccc2C)ccc1Cc1cccc2ccc(NC(=O)CC3CCCC3)cc12
201 to 204	CCOCc1nc2c(N)nc3cc(Br)ccc3c2s1
176	CC(C)(C)OC(=O)N1CC(CO)c2c1cc([N+](=O)[O-])c1ccccc21 (configuration not stated)

Structure (SMILES)	melting point [°C]
CCC(=O)N1N=C(c2ccc([N+](=O)[O-])c(C)c2)c2cc(Cl)ccc2C=C1C	134 to 138
Cc1cc2c(cc1-c1ccc(C=O)s1)C(C)(C)CCC2(C)C	130 to 135
COC(=O)c1cncn1C(c1ccccc1)c1ccccn1 (configuration not stated)	96.3
CCCCn1cc(C(=O)Nc2nccs2)c2ccc(Cl)cc21	168 to 169
O=C(O)C(=O)CC(=O)c1cn(Cc2ccc(F)cc2)c2ccccc12	161 to 162
CCCC(=O)C1CCC2C3CCC4CC(O)CCC4(C)C3C(=O)CC12C (configuration not stated)	112 to 113
CC(c1ccc(F)cc1)N1CC(C)(C)C(Oc2ccc(C#N)c(C(F)(F)F)c2)C1=O (configuration not stated)	82 to 83

Source: a melting point compilation (Tetko et al.; mined from patent text by program, amines drawn as free bases though some values may be those of a salt)
